The species entered for series [1] is Mus musculus. Conditions: in vivo, sc, 1 h.
Description: Toxicity in sc dosed NMRI mouse assessed as cataleptogenic potential administered 30 mins prior to testing measured every 15 mins for 60 mins by horizontal bar test
The species named for series [2] is Mus musculus. The following applies: in vivo, 0.5 h.
Description: Sedative activity in NMRI mouse assessed as reduction in spontaneous locomotor activity administered 30 mins prior to testing
For series [3], the species on record is Mus musculus. Briefly: animal or person. Conditions: NMRI.
Description: Antipsychotic activity in NMRI mouse assessed as reduction in phencyclidine-induced locomotor activity administered 30 mins prior to testing measured for 60 mins
The species named for series [4] is Mus musculus. Briefly: animal or person. Conditions: NMRI. This is another data set of the same source.
Description: Antipsychotic activity in NMRI mouse assessed as reduction in methamphetamine-induced locomotor activity administered 30 mins prior to testing measured for 60 mins
Series [5] has as its target T1, 5-hydroxytryptamine receptor 1A (Rattus norvegicus, UniProt P19327).
T1 sequence (P19327 whole entry): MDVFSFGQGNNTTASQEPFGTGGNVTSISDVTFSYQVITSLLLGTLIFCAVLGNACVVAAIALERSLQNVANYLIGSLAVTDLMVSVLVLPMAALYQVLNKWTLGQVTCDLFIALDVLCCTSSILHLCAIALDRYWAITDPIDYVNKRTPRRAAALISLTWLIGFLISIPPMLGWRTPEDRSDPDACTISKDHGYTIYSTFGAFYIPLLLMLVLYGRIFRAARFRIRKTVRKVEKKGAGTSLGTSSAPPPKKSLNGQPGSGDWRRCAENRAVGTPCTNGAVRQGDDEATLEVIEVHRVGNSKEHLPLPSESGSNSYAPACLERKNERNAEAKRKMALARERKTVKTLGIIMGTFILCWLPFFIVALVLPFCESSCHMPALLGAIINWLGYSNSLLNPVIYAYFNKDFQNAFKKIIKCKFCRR
Briefly: biochemical.
Description: Displacement of [3H]8OH-DPAT from 5HT1A receptor in CRL:CD(SD)BR-COBS rat hippocampus by scintillation spectrometry

The target in series [6] is Voltage-gated inwardly rectifying potassium channel KCNH2 (Homo sapiens, UniProt Q12809).
Voltage-gated inwardly rectifying potassium channel KCNH2, sequence (Q12809 whole entry): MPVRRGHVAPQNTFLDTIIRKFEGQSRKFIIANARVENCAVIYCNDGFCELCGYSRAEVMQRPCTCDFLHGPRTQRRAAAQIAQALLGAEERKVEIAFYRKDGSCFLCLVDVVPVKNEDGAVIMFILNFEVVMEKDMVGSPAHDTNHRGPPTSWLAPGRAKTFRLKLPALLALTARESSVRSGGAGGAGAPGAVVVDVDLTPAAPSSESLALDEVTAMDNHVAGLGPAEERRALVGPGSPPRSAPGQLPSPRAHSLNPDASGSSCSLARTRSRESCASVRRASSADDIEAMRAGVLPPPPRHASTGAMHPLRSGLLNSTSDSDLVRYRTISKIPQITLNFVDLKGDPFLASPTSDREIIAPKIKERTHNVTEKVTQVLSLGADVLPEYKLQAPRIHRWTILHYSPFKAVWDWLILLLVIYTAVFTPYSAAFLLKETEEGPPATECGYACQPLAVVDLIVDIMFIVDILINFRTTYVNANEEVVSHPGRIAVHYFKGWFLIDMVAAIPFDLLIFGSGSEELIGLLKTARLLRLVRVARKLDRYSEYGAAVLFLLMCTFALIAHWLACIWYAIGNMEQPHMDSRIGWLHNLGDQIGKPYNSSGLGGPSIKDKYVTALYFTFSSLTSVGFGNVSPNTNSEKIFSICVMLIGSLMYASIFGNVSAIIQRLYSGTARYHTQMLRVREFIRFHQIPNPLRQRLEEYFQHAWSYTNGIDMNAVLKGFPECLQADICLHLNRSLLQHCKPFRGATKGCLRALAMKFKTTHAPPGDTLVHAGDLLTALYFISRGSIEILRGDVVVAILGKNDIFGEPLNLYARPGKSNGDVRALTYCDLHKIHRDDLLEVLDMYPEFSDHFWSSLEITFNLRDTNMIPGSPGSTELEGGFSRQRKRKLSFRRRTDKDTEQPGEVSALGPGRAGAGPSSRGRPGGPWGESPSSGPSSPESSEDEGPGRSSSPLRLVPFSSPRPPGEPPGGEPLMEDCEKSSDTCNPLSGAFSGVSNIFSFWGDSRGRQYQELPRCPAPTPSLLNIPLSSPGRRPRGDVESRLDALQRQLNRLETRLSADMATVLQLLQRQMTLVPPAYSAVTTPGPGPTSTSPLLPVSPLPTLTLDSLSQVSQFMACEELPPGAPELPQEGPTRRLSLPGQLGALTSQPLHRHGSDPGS
Description: Binding affinity to human ERG expressed in HEK293 cells by whole cell patch clamp method
In series [7] the target is 5-hydroxytryptamine receptor 2A (Rattus norvegicus, UniProt P14842).
5-hydroxytryptamine receptor 2A, sequence (P14842 whole entry): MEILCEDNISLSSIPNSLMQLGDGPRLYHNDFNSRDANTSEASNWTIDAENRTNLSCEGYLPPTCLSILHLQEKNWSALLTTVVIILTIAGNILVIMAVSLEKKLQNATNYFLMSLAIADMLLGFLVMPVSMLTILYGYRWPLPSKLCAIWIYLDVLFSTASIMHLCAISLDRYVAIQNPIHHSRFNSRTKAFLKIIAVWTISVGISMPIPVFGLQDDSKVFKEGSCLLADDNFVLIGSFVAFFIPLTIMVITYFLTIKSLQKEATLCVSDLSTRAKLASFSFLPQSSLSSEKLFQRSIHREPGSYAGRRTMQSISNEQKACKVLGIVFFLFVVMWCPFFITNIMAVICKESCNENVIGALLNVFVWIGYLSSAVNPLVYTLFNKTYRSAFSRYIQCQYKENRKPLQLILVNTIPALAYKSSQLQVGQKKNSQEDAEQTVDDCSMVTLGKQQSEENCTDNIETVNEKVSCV
Description: Displacement of [3H]ketanserin from 5HT2A receptor in CRL:CD(SD)BR-COBS rat cortex by scintillation spectrometry
For a further series, the target named is D(3) dopamine receptor (Homo sapiens, UniProt P35462). Briefly: biochemical.
D(3) dopamine receptor, sequence (P35462 whole entry): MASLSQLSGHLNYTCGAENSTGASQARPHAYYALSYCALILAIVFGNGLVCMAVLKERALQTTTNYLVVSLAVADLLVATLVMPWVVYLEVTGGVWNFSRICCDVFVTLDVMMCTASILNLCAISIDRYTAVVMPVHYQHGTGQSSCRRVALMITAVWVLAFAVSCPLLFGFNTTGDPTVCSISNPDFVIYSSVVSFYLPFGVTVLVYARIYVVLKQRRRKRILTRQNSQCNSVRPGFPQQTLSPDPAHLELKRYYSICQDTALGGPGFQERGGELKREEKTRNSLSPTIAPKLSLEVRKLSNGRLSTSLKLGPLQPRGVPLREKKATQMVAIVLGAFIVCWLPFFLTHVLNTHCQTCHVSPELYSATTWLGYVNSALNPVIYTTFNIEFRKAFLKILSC
The next series has as its target D(1A) dopamine receptor (Rattus norvegicus, UniProt P18901).
In series [8] the target is D(1A) dopamine receptor (Rattus norvegicus) (UniProt P18901). Briefly: Displacement of [3H]SCH23390 from dopamine D1 receptor in CRL:CD(SD)BR-COBS rat striatum at 100 uM by scintillation spectrometry. For orientation: Displacement assays read how much labelled ligand stays bound in the presence of the test substance.
D(1A) dopamine receptor (Rattus norvegicus), sequence (P18901 whole entry): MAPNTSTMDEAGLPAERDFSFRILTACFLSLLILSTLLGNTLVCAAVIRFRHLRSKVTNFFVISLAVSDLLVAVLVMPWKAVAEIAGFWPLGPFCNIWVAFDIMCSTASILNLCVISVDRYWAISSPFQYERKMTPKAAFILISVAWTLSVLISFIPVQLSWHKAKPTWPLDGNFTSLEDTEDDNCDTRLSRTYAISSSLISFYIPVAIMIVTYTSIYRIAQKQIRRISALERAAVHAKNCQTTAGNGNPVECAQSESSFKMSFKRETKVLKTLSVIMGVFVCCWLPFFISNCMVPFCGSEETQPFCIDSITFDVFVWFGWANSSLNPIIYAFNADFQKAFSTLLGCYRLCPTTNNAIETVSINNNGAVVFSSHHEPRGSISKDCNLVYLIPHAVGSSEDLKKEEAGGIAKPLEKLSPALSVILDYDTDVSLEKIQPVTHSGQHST

Structures are written as SMILES. Activity calls are given as the source filed them. The calls are words filed in the database; no cut-off is given here.

D(1A) dopamine receptor, sequence (P18901 whole entry): as above
Description for D(3) dopamine receptor: Displacement of [3H]7OH-DPAT from dopamine D3 receptor expressed in Sf9 cells by scintillation spectrometry

With `CN1CCN(C2=Nc3cc(Cl)ccc3Nc3ccccc32)CC1` [CLOZAPINE], the ED50 in the series filed under Mus musculus [1] is more than 30 mg/kg; in the series filed under Mus musculus [2] it was 2.4 mg/kg; in the series filed under Mus musculus [3], 1.1 mg/kg; in the series listed under Mus musculus [4], 2.5 mg/kg.

Take `Clc1cccc(N2CCN(CCCCOc3cc4ccccc4cn3)CC2)c1Cl`: the Ki in [5] came out at 24.2 nM; in [6], 160 nM; in series [7], 123 nM; at D(3) dopamine receptor, 32.9 nM.

On to `O=C(CCCN1CCC(O)(c2ccc(Cl)cc2)CC1)c1ccc(F)cc1` [HALOPERIDOL], for which the figures for the ED50 in the series listed under Mus musculus [1], in the series listed under Mus musculus [2] and in the series filed under Mus musculus [3] were 0.19 mg/kg, 0.08 mg/kg and 0.09 mg/kg, respectively.

On to `N#Cc1cccc(N2CCN(CCCCN3CCn4c(cc5ccccc54)C3=O)CC2)c1`, for which the Ki in series [7] was 389 nM; on D(3) dopamine receptor, 3.7 nM; on D(1A) dopamine receptor, more than 10000 nM.

On to `O=C1c2cc3ccccc3n2CCN1CCCCN1CCN(c2cccc(Cl)c2Cl)CC1`, for which the Ki amounted to 9.3 nM in series [5]; 200 nM in [6]; 83 nM in [7]; 0.105 nM at D(3) dopamine receptor; 4370 nM at D(1A) dopamine receptor. The ED50 in the series listed under Mus musculus [2] is more than 30 mg/kg; in the series filed under Mus musculus [3], more than 3 mg/kg; in the series filed under Mus musculus [4] it was 3.7 mg/kg.

On to `COc1cccc2cc3n(c12)CCN(CCCCNC(=O)C1=Cc2ccccc2CN1)C3`, for which the Ki in series [5] was 28 nM; in [6], 1840 nM; in [7] it was 164 nM; on D(3) dopamine receptor it was 33.5 nM; on D(1A) dopamine receptor, more than 10000 nM.

On to `O=C(NCCCCN1CCN(c2cccc(Cl)c2)CC1)c1cc2ccccc2cn1`, for which the Ki in [5] worked out at 14.7 nM; in [6] it was 300 nM; in [7] it was 23.4 nM; at D(3) dopamine receptor, 0.27 nM; at D(1A) dopamine receptor, 5500 nM. For the same compound, the ED50 in the series listed under Mus musculus [2] was determined as 14 mg/kg; in the series listed under Mus musculus [3], 6.7 mg/kg; in the series listed under Mus musculus [4], 4.2 mg/kg.

Regarding `O=C(NCCCCN1CCN(c2cccc(Cl)c2Cl)CC1)c1cc2ccccc2cn1`, the Ki was 5 nM in series [5]; 200 nM in [6]; 41 nM in series [7]; 0.099 nM at D(3) dopamine receptor; 4600 nM on D(1A) dopamine receptor.

For the compound `COc1cccc2c1C1CCN(CCCCNC(=O)C3=Cc4ccccc4CN3)CC1=N2` (stereo not given), the Ki is 118 nM in [5], 149 nM in [7], 6 nM on D(3) dopamine receptor and more than 10000 nM on D(1A) dopamine receptor.

As to `N#Cc1cccc(N2CCN(CCCCNC(=O)c3cc4ccccc4o3)CC2)c1`, the figures for the Ki (in [6]; at D(3) dopamine receptor; on D(1A) dopamine receptor) were 390 nM, 0.54 nM and more than 10000 nM, respectively.

In the case of `COc1cccc2cc3n(c12)CCN(CCCCN1CCn2c(cc4ccccc42)C1=O)C3`, the Ki in [5] is 33 nM; in series [6], 260 nM; in series [7], 200 nM; at D(3) dopamine receptor, 8.6 nM; at D(1A) dopamine receptor, more than 10000 nM.

Take `Cc1cc2c(s1)Nc1ccccc1N=C2N1CCN(C)CC1` [OLANZAPINE]: the affinity in series [6] corresponds to a Ki of 36000 nM.

With `O=C1c2cc3ccccc3n2CCN1CCCCN1CCN(c2ccc(Cl)cc2Cl)CC1`, the values for the Ki (in series [7]; on D(3) dopamine receptor; on D(1A) dopamine receptor) were 300 nM, 3.2 nM and 4320 nM, respectively.

As to `Clc1cccc(N2CCN(CCCCCOc3cc4ccccc4cn3)CC2)c1Cl`, the Ki was found to be 18 nM in series [5], 210 nM in [6], 57 nM in series [7] and 0.14 nM at D(3) dopamine receptor. The ED50 in the series listed under Mus musculus [2] is more than 30 mg/kg; in the series filed under Mus musculus [3], more than 10 mg/kg; in the series listed under Mus musculus [4], more than 10 mg/kg.

On to `O=C(NCCCCN1CCN(c2ccc(Cl)cc2Cl)CC1)c1cc2cc(Cl)ccc2[nH]1`, for which, in the series filed under Mus musculus [3], the ED50 is more than 30 mg/kg. The same compound gave a Ki at D(3) dopamine receptor of 0.38 nM.

On to `Clc1cccc(N2CCN(CCCCOc3ccc4cccnc4c3)CC2)c1Cl`, for which the Ki in [5] turned out to be 4 nM; in series [7], 127 nM; at D(3) dopamine receptor, 8.2 nM. For the same compound, in [8], the result was inactive.

The compound `O=C(NCCCCN1CCN(c2ccc(Cl)cc2Cl)CC1)c1cc2ccccc2[nH]1` yielded an ED50 in the series filed under Mus musculus [3] of more than 30 mg/kg.

As a reminder, the ED50 is the midpoint of the dose-response relation. Higher therefore signals a need for a large dose. As usually defined, the Ki is a measure of affinity in units of concentration, obtained from inhibition or displacement.

The values are drawn from ChEMBL document CHEMBL1139353, “Discovery of a new class of potential multifunctional atypical antipsychotic agents targeting dopamine D3 and serotonin 5-HT1A and 5-HT2A receptors: design, synthesis, and effects on behavior” (J Med Chem, 2009).
